Results on 1 molecule are retold here after paper PMC8211987, “Primaquine Diphosphate, a Known Antimalarial Drug, Blocks Vascular Leakage Acting Through Junction Stabilization” (Frontiers in Pharmacology, 2021).

pIC50: −log10 of the molar value.

For the experiment, the target named is T1, ubiquitin specific protease 1 (USP1) (Homo sapiens, UniProt O94782).
T1 construct: recombinant USP1/UAF1 complex; with UAF1
In words: Ub-AMC deubiquitinase activity assay with purified recombinant USP1/UAF1. The class given is biochemical.

T1 sequence (O94782 whole entry): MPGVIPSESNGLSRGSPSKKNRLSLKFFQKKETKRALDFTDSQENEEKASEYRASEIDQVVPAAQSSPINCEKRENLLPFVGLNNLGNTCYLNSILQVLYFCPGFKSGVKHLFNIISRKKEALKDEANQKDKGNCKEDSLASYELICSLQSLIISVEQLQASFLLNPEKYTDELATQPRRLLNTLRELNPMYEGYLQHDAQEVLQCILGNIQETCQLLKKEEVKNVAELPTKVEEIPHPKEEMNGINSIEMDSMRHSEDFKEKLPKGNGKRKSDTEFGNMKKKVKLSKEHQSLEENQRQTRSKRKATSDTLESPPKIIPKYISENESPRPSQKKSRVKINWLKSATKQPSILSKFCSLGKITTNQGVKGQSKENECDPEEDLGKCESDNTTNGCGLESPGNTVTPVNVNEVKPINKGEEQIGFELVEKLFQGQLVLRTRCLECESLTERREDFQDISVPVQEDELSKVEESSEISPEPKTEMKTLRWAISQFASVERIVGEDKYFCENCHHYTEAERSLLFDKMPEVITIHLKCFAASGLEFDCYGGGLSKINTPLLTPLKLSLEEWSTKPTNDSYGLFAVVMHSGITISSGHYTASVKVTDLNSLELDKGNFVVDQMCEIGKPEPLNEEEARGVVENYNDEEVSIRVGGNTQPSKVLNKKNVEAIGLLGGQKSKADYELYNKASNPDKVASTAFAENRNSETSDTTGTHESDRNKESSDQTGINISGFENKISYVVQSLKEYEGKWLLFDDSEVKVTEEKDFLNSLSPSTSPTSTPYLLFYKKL
T1 sequence (Q8TAF3 whole entry partner): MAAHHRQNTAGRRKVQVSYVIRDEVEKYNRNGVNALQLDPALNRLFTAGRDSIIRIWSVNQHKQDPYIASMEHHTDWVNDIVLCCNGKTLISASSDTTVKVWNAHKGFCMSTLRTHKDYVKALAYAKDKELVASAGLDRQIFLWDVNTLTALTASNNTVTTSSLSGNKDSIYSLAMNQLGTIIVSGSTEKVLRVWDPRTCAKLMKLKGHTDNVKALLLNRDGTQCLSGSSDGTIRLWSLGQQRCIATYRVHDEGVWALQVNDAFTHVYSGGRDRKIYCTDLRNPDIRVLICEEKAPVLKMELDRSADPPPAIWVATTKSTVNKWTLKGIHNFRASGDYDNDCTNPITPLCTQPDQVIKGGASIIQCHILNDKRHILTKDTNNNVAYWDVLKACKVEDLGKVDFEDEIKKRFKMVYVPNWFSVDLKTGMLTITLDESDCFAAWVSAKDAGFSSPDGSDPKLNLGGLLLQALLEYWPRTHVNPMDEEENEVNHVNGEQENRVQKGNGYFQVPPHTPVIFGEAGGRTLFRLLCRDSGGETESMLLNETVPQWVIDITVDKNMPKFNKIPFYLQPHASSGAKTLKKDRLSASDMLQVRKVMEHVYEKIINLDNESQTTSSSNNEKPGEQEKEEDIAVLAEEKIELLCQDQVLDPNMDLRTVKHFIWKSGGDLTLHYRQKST

Consider `COc1cc(NC(C)CCCN)c2ncccc2c1` (stereo not shown) [PD, Primaquine diphosphate], for which the pIC50 was 4.60.
